According to PubChem BioAssay (NCI):
Several values for one entry are separate records, joined by “and”; a condition that tells them apart may be missing. Equal values may be shown once.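 Exposure lasted 48 hours, with cells grown in 96-well plates and compounds tested at five concentrations. At the GI50, growth is halved. At the TGI there is no net growth.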

Columns and labels:
Test in all cases: growth of human tumour cells (NCI), 48 h
BT-549 breast = system: BT-549 breast
T-47D breast = system: T-47D breast
MDA-N = system: MDA-N
DLD-1 colon = system: DLD-1 colon
HOP-18 NSCLC = system: HOP-18 NSCLC
LXFL 529 NSCLC = system: LXFL 529 NSCLC
M19-MEL melanoma = system: M19-MEL melanoma
SNB-78 CNS = system: SNB-78 CNS
RXF-631 renal = system: RXF-631 renal

SMILES	GI50 (BT-549 breast)	TGI (BT-549 breast)	TGI (T-47D breast)	TGI (MDA-N)	TGI (DLD-1 colon)	TGI (LXFL 529 NSCLC)	other results
COc1cc([N+](=O)[O-])c2ncccc2c1[N+](=O)[O-]	7.62 µM	20.2 µM	11.7 µM				GI50 (T-47D breast): 3.1 µM
CCOc1cc(-c2ccc[nH]2)[nH]c1/C=C1\N=C(C)C(C(=O)OC)=C1C	0.0451 µM	1.92 µM	0.367 µM				GI50 (T-47D breast): 0.0311 µM
CSc1ccc(C(=O)C(=O)c2ccc(SC)s2)s1			> 10 µM	> 10 µM			
COc1nc(NC2OC(COC(C)=O)C(OC(C)=O)C(OC(C)=O)C2OC(C)=O)c(-c2csc(N)n2)c(=O)n1C (configuration not stated)					> 100 µM	> 100 µM	TGI (HOP-18 NSCLC): > 100 µM; TGI (M19-MEL melanoma): > 100 µM; TGI (SNB-78 CNS): > 100 µM
COc1cc2cc3c4c(cc(OC)c(OC)c4c2cc1OC)CCN3C(=O)CCC(=O)NCCCN(C)C					30.9 µM	> 100 µM	TGI (HOP-18 NSCLC): > 100 µM; TGI (M19-MEL melanoma): 55.4 µM; TGI (SNB-78 CNS): > 100 µM
CCOP(=O)(OCC)C(C)(CC)NC(=O)C(C(F)(F)F)C(F)(F)F (configuration not stated)	19.3 µM and 3.87 µM	99.7 µM and > 100 µM	> 100 µM and 99.7 µM	> 100 µM			GI50 (T-47D breast): > 51.5 µM and 21.1 µM
O=C(Cc1csc2nc(-c3ccc(Br)cc3)cn12)N/N=C/c1ccc(O)cc1	13.4 µM	56.5 µM	> 100 µM				GI50 (T-47D breast): 31.8 µM
CC(=O)Oc1ccc2c(c1)CC[C@@H]1C2CC[C@]2(C)C(=O)NC(=O)CC12 (some centres not stated)		> 100 µM	> 100 µM	> 100 µM			
Nc1[nH]c(=O)ncc1CO	> 100 µM	> 100 µM	> 100 µM				GI50 (T-47D breast): > 100 µM
CSC1=NCC2(S1)c1ccccc1N(C(=O)OC(C)(C)C)C2N1CCCCC1 (configuration not stated)	> 100 µM	> 100 µM					
CCOc1ccc(C(CN2CCOCC2)C(C)=O)cc1OC (configuration not stated)					27.9 µM	17 µM	TGI (HOP-18 NSCLC): 30.2 µM; TGI (M19-MEL melanoma): 34.1 µM; TGI (SNB-78 CNS): 66.8 µM
COc1cccc(C2NC(=S)NC(C)=C2C(=O)Nc2ccc(Cl)c(Cl)c2)c1 (configuration not stated)	7.15 µM	16.8 µM	> 50 µM				GI50 (T-47D breast): 14.4 µM
O=S(=O)(c1ccc(O)c(C=Nc2ccc(Cl)cc2)c1)c1ccc(O)c(C=Nc2ccc(Cl)cc2)c1					> 100 µM	> 100 µM	TGI (HOP-18 NSCLC): > 100 µM; TGI (M19-MEL melanoma): > 100 µM; TGI (RXF-631 renal): > 100 µM
O=C1c2ccccc2C(=O)c2nc3ccc(Cl)cc3cc21					> 100 µM	> 100 µM	TGI (M19-MEL melanoma): > 100 µM; TGI (RXF-631 renal): > 100 µM; TGI (SNB-78 CNS): > 100 µM
OCNCCNc1nc2ccccc2c2[nH]c3ccccc3c12	1.15 µM	3.48 µM					
COC(=O)CC(C(C(C)=O)C(=O)OCc1ccccc1)N1C(=O)OCC1c1ccccc1 (configuration not stated)					> 100 µM	> 100 µM	TGI (M19-MEL melanoma): > 100 µM; TGI (RXF-631 renal): > 100 µM
CC(=O)N(Cc1ccccc1)c1ccccc1I(=O)=O	> 100 µM	> 100 µM	> 100 µM				GI50 (T-47D breast): 36.1 µM
CCOC(=O)C(NC(=O)c1[nH]cnc1/N=N/N(C)C)C(C)C (configuration not stated)					> 100 µM	> 100 µM	TGI (M19-MEL melanoma): > 100 µM
COc1ccc(S(=O)(=O)N(C)CC(=O)O)cc1					> 100 µM	> 100 µM	TGI (HOP-18 NSCLC): > 100 µM; TGI (M19-MEL melanoma): > 100 µM; TGI (RXF-631 renal): > 100 µM
COC(=O)c1c(C)nc(C)c(NO)c1-c1ccccc1C(F)(F)F		30.8 µM	66.1 µM	30.5 µM			

SMILES	GI50 (BT-549 breast)	TGI (BT-549 breast)	TGI (T-47D breast)	TGI (MDA-N)	TGI (DLD-1 colon)	TGI (LXFL 529 NSCLC)	other results
CCCCCCCCCCCCCCCCOC(=O)c1cc(O)cc(C(=O)OCCCCCCCCCCCCCCCC)c1						> 100 µM	TGI (HOP-18 NSCLC): > 100 µM; TGI (M19-MEL melanoma): > 100 µM; TGI (RXF-631 renal): > 100 µM; TGI (SNB-78 CNS): > 100 µM
CN1CCN(c2nc(-c3ccncc3)nc3sc4c(c23)CCCCCC4)CC1	6.35 µM	19.9 µM	29.3 µM				GI50 (T-47D breast): 13.5 µM
CC(=O)OC1CC2C(=O)C(=O)C1(C)C2(C)C (configuration not stated)		> 100 µM	> 100 µM	> 100 µM			
CCOP(=O)(Nc1ccc2oc(=O)c3ccccc3c2c1)OCC		> 100 µM	> 100 µM	> 100 µM			
CC1CCC2N(C1)CC1C3(O)CC45OC6(O)C(O)CCC4(C)C6CCC5C3(O)CC(O)C1(O)C2(C)O (configuration not stated)		> 100 µM	> 100 µM	> 100 µM			
C#CCN(Cc1ccc2nc(N)[nH]c(=O)c2c1)c1ccc(C(=O)NC(CCC(=O)O)C(=O)O)cc1 (configuration not stated)		> 100 µM	> 100 µM	> 100 µM			
COc1ccc(C(O)CC(O)(C(F)(F)F)C(F)(F)F)cc1 (configuration not stated)			> 100 µM	> 100 µM			
CC/C=C\C/C=C\C[C@H](O)C/C=C1/C(=O)C=C[C@@H]1C/C=C\CCCC(=O)OC	1.83 µM	4.01 µM	9.38 µM				GI50 (T-47D breast): 2.1 µM
Cc1cc(C(O)CN(C)C)cc2c1ccc1cc(C(C)C)ccc12 (configuration not stated)	5.67 µM	19.5 µM	4.48 µM				GI50 (T-47D breast): 2.04 µM
Cc1nc(N)nc2ccccc12		> 100 µM	> 100 µM	> 100 µM			
N=C1C=C(N)C(=O)c2[nH]c(=O)ccc21			4.88 µM	2.28 µM			
COc1ccc(CCN=C2CCC(C(=O)NCCc3ccc(OC)c(OC)c3)N2)cc1OC (configuration not stated)					> 100 µM	> 100 µM	TGI (HOP-18 NSCLC): > 100 µM; TGI (RXF-631 renal): > 100 µM; TGI (SNB-78 CNS): > 100 µM
O=C1CN(/N=C/c2ccc(-c3ccc(F)cc3)o2)C(=O)N1			> 100 µM	38.6 µM			
CCN(CC)CCN(C(=O)C(C)(C)C)c1ccccc1N		> 100 µM		> 100 µM			
CC(NC(=O)c1ccccc1)(C(=O)O)C(=O)O		> 100 µM	> 100 µM	> 100 µM			
C[C@]12CC[C@H](OC3CCCCO3)CC1=CC[C@@H]1C2CC[C@]2(C)/C(=N/O)CCC12 (some centres not stated)					> 100 µM	45.6 µM	TGI (HOP-18 NSCLC): 30.5 µM; TGI (SNB-78 CNS): 64.4 µM
CC1OC(OC2CCC3(C=O)C4CCC5(C)C(C6=CC(=O)OC6)CCC5(O)C4CCC3(O)C2)C(O)C(O)C1O (configuration not stated)		4.44e-05 µM		7.94e-05 µM			
CNC(=O)CN(CC(N)=O)C(N)=O					> 100 µM	> 100 µM	TGI (M19-MEL melanoma): > 100 µM; TGI (RXF-631 renal): > 100 µM; TGI (SNB-78 CNS): > 100 µM
CO[C@@]12[C@@H]3NC3CN1C1=C(C(=O)C(N)=C(C)C1=O)[C@@H]2COC(N)=O (some centres not stated)	1.3 µM	6.74 µM	54.5 µM				GI50 (T-47D breast): 1.67 µM
COc1ccc2nc3ccccc3c(NCCCCN(C)CCCl)c2c1		1.98 µM			0.964 µM	0.189 µM	TGI (M19-MEL melanoma): 0.602 µM; TGI (RXF-631 renal): 0.367 µM; TGI (SNB-78 CNS): 0.674 µM
